Experiments:
human TLR7 = human TLR7 (Homo sapiens (Human), UniProt Q9NYK1); assay: Agonistic activity on human TLR7 in HEK-Blue hTLR7 stably transfected cells; type: cell-based; conditions: for EC50: OD 620 nm
Protocol: The activation effect of the compounds of the present invention on the hTLR7 protein expressed by the HEK-Blue™ hTLR7 stably transfected cells was determined by the following experimental method:
(§1) A bag of HEK-Blue detection dry powder was dissolved in 50 ml of water free of endotoxin, and the solution was then placed in an incubator at 37° C. for 10 minutes followed by sterile filtration to prepare a HEK-Blue detection medium. The compound was firstly formulated into a 20 mM stock solution, then diluted with pure DMSO to a maximum concentration of 6×10^6 nM, and a total of 10 points were obtained by a 3-fold gradient dilution.
(§2) The above formulated compound was firstly diluted 20-fold with the medium, then 20 μl of the diluted compound were added to each well. The supernate was removed from the HEK-Blue™ hTLR7 cells, to which 2-5 ml of pre-warmed PBS were then added. The cells were placed in an incubator for 1-2 minutes, gently pipetted, and counted by trypan blue staining. The cells were re-suspended in the HEK-Blue detection medium to adjust the concentration to 2.2×10^5 cells/ml. 180 μl of cells were added to the above 96-well plate already added with 20 μl of the compounds, and incubated at 37° C. for 6-16 hours.
The activation effect of the compounds of the present invention on human TLR7 can be determined by the above test, and the obtained EC50 values are shown in Table 1.

human TLR8 = human TLR8 (Homo sapiens (Human), UniProt Q9NR97); assay: Agonistic activity on human TLR8 in HEK-Blue hTLR8 stably transfected cells; type: cell-based; conditions: for EC50: OD 620 nm
Protocol: The activation effect of the compounds of the present invention on the hTLR8 protein expressed by the HEK-Blue™ hTLR8 stably transfected cells was determined by the following experimental method:
as §1, with “dilution. The compound was firstly diluted 20-fold with the medium, then 20 μl of the diluted compound were added to each well.” for “dilution.”
as §2, with “The” for “The above formulated compound was firstly diluted 20-fold with the medium, then 20 μl of the diluted compound were added to each well. The”, “hTLR8” for “hTLR7”
The activation effect of the compounds of the present invention on human TLR8 can be determined by the above test, and the obtained EC50 values are shown in Table 2.

CYP3A4 [1] = target: T1, CYP3A4 (Homo sapiens (Human), UniProt P08684); assay: Inhibition of the midazolam metabolite site of CYP3A4 in human liver microsomes; type: in vitro ADME; conditions: probe substrate midazolam
Protocol: The effect of the compounds of the present invention on the enzyme activity of midazolam metabolite site of CYP3A4 in human liver microsomes was determined by the following experimental method:
(§3) 100 mM PBS buffer was formulated, which was then used to formulate 2.5 mg/ml microsome solution and 5 mM NADPH solution. The 5× concentration of the compound working solution was diluted with PBS gradient (150, 50, 15, 5, 1.5, 0.15, 0.015, 0 μM). The 5× concentration of ketoconazole working solution was diluted with PBS gradient (150, 50, 15, 5, 1.5, 0.15, 0.015, 0 μM). Dextromethorphan working solution was diluted with PBS to a concentration of 50 μM.
(§4) 20 μl of 2.5 mg/ml microsome solution, 20 μl of 50 μM testosterone working solution, 20 μl of MgCl2 solution and 20 μl of the compound working solution (150, 50, 15, 5, 1.5, 0.15, 0.015, 0 μM, different reaction systems for each concentration) were taken respectively and mixed well. For the positive control group, the compound was replaced with the same concentration of ketoconazole. The mixture together with 5 mM NADPH solution were pre-incubated at 37° C. for 5 minutes. After 5 minutes, 20 μl of NADPH were added to each well, the reaction was started and incubated for 30 minutes. All the incubated samples were present in duplicate. After 30 minutes, 250 μl of acetonitrile containing internal standard were added to all samples, mixed well, shaken at 800 rpm for 10 minutes, and then centrifuged at 3700 rpm for 10 minutes. 80 μl of the supernatant were taken and analyzed by LC-MS/MS.
The data were calculated by Graphpad Prism to obtain the IC50 values of the compounds on the midazolam metabolite site of CYP3A4.

CYP2D6 = CYP2D6 (Homo sapiens (Human), UniProt P10635); assay: Inhibition of the enzyme activity of CYP2D6 in human liver microsomes; type: in vitro ADME; conditions: probe substrate dextromethorphan
Protocol: The effect of the compounds of the present invention on the enzyme activity of CYP2D6 in human liver microsomes was determined by the following experimental method:
as §3, with “quinidine” for “ketoconazole”
as §4, with “quinidine.” for “ketoconazole.”
The data were calculated by Graphpad Prism to obtain the IC50 values of the compounds on the metabolite site of CYP2D6.

CYP3A4 [2] = target: T1, CYP3A4; assay: Inhibition of the testosterone metabolite site of CYP3A4 in human liver microsomes; type: in vitro ADME; conditions: probe substrate testosterone
Protocol: The effect of the compounds of the present invention on the enzyme activity of testosterone metabolite site of CYP3A4 in human liver microsomes was determined by the following experimental method:
as §3, §4
The data were calculated by Graphpad Prism to obtain the IC50 values of the compounds on the testosterone metabolite site of CYP3A4.

Chain of human TLR7 (Q9NYK1 27-1049): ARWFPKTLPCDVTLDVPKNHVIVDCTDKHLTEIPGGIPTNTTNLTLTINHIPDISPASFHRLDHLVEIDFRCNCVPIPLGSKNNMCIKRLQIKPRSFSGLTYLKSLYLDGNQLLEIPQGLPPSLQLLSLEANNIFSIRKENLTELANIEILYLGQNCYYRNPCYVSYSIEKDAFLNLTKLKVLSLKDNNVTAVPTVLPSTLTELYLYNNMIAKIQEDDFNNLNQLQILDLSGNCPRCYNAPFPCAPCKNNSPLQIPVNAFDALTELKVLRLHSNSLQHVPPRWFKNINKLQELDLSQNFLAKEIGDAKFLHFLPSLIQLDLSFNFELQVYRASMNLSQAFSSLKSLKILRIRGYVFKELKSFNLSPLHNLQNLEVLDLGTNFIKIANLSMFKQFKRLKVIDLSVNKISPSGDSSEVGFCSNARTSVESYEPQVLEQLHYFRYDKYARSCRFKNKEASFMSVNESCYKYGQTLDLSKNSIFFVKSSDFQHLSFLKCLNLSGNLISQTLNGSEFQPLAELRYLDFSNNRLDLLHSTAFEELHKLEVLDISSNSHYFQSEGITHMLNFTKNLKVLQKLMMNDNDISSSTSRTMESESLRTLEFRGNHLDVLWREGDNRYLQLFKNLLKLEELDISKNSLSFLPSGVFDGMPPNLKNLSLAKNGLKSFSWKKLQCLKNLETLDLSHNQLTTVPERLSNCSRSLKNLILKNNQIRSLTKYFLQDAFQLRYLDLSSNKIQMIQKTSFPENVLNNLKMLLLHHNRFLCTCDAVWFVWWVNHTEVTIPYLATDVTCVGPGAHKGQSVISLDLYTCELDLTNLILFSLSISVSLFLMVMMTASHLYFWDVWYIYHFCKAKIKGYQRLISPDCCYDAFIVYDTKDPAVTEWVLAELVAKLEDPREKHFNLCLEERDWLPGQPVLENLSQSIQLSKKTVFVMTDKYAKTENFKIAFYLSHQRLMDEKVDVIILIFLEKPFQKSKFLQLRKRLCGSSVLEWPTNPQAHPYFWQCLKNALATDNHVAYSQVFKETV
Chain of CYP2D6 (P10635 whole entry): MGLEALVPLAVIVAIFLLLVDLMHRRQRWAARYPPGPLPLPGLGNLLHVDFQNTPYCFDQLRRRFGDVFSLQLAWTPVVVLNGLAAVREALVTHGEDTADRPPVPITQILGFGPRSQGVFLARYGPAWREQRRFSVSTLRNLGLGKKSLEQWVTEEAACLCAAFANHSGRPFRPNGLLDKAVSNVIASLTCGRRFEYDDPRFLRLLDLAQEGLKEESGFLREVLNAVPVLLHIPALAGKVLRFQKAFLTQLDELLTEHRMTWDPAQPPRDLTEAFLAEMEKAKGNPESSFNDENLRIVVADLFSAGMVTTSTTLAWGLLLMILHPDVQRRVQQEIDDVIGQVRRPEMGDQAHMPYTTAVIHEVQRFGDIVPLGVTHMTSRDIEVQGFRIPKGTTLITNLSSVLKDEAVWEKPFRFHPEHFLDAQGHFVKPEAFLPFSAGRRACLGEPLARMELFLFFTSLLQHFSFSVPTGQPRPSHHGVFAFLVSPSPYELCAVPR
T1 sequence (P08684 whole entry): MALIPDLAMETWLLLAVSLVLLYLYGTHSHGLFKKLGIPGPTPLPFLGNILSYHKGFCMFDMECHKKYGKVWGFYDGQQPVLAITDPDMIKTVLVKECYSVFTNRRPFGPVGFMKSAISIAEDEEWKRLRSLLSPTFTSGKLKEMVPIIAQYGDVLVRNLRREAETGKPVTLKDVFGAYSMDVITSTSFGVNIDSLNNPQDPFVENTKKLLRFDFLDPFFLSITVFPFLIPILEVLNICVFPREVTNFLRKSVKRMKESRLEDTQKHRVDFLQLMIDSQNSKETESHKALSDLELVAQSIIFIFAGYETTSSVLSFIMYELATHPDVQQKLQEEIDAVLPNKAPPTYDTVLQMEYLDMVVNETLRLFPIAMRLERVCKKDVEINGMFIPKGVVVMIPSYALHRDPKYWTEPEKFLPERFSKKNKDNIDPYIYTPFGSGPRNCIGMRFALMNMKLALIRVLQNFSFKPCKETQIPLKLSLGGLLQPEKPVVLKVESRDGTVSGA
Chain of human TLR8 (Q9NR97 27-1041): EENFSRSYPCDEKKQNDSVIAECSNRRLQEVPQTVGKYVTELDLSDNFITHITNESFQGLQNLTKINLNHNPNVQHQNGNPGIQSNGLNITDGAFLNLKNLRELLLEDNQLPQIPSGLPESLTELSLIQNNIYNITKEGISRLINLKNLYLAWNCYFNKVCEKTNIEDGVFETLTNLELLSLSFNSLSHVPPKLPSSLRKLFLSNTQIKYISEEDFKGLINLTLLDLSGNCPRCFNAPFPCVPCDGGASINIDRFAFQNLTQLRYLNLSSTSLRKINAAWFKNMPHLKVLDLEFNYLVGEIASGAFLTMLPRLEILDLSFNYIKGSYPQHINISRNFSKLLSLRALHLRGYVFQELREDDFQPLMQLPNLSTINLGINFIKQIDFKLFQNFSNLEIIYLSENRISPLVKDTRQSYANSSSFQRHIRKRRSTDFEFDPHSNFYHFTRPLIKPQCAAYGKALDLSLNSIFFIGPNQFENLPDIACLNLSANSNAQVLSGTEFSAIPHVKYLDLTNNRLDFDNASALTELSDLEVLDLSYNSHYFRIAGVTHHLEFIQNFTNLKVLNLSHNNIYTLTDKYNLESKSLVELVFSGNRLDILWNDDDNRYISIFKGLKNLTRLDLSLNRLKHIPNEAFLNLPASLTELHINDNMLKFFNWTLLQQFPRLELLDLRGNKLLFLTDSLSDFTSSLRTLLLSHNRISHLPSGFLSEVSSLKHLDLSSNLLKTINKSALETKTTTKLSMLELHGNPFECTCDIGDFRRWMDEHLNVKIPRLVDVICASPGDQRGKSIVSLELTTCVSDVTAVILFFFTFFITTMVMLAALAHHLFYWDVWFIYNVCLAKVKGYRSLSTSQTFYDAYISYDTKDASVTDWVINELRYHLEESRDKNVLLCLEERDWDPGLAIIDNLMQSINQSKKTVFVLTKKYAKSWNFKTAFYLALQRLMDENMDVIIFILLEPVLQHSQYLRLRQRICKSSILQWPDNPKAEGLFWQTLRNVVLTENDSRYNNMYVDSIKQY

Row | SMILES | Emax (human TLR7) | EC50 (human TLR7) | Emax (human TLR8) | EC50 (human TLR8) | IC50 (CYP3A4 [1]) | IC50 (CYP2D6) | IC50 (CYP3A4 [2])
1 | CCCCOc1nc(N)c2cnn(Cc3ccc(CN4CCC4)cc3)c2n1 [Example 2, 1-(4-(Azetidin-1-ylmethyl)benzyl)-6-butoxy-1H-pyrazolo[3,4-d]pyrimidin-4-amine] | 91% | 0.064 µM | 52% | > 29 µM | 10 µM | > 30 µM | 19 µM
2 | CCCCOc1nc(N)c2cnn(Cc3ccc(CN4CCCCC4)cc3)c2n1 [Example 3, 6-Butoxy-1-(4-(piperidin-1-ylmethyl)benzyl)-1H-pyrazolo[3,4-d]pyrimidin-4-amine] | 91% | 0.077 µM | 2% | > 24 µM | 7 µM | 4 µM | 3 µM
3 | CCCCOc1nc(N)c2cnn(Cc3cccc(CN4CCCC4)c3)c2n1 [Example 4, 6-Butoxy-1-(3-(pyrrolidin-1-ylmethyl)benzyl)-1H-pyrazolo[3,4-d]pyrimidin-4-amine] | 88% | 0.166 µM | 28% | > 30 µM | 11 µM | 16 µM | 6 µM
4 | COCCOc1nc(N)c2cnn(Cc3ccc(CN4CCCC4)cc3)c2n1 [Example 7, 6-(2-Methoxyethoxy)-1-(4-(pyrrolidin-1-ylmethyl)benzyl)-1H-pyrazolo[3,4-d]pyrimidin-4-amine] | 95% | 0.18 µM | 0% | > 30 µM | > 30 µM | > 30 µM | > 30 µM
